# Tested on: Cyclocephala immaculata
# Assay: Watering test with beetle larvae (Example 2)
# Format: in vivo
# Settings: L3 larvae, watering, (I-1) 600, azadirachtin 60, (I-1)+azadirachtin 600+60, trichlorfon 4529 g of active compound/ha
# Excerpt: Beetle larvae (grubs) are important lawn pests. On the one hand, they feed on grass roots, damaging them directly, on the other hand they are a favoured food for birds which, searching for grubs, destroy the turf. For treatment against grubs, infested lawns are usually watered with insecticidal compositions. This type of treatment is emulated in the laboratory by Example 2.
# To prepare a suitable active compound preparation, a commercial formulation of active compound or active compound combination is mixed with water until the desired concentration is reached. Pots with soil substrate were watered with the following active compound preparations: • 1. untreated • 2. compound (I-1) as SL 200, 600 g of active compound/ha • 3. azadirachtin, 60 g of active compound/ha • 4. compound (I-1) as SL 200+azadirachtin, 600+60 g of active compound/ha • 5. positive control: trichlorfon 4529 g of active compound/ha
# L3 larvae of Cyclocephala immaculata were placed onto the pots. After 1, 4, 7, 14 days, the survival rate was determined, and this was used to calculate the efficacy of the compositions. 100% means that all grubs were killed, 0% means no activity.
smiles,measurement,setting,value
COP(=O)(OC)C(O)C(Cl)(Cl)Cl (stereo not shown) [trichlorfon],Effect on day 1 in %,day 1,0%
same,Effect on day 4 in %,day 4,17%
same,Effect on day 7 in %,day 7,29%
same,Effect on day 14 in %,day 14,50%
